ChEMBL document CHEMBL1201862, “PubChem BioAssay data set” (2004)
Calls of active or inactive are those of the source.

How the values were obtained:
Caspase-3 [1] = molecular target: T1, Caspase-3 (Homo sapiens, UniProt P42574); assay type: functional
T1 sequence (P42574 whole entry): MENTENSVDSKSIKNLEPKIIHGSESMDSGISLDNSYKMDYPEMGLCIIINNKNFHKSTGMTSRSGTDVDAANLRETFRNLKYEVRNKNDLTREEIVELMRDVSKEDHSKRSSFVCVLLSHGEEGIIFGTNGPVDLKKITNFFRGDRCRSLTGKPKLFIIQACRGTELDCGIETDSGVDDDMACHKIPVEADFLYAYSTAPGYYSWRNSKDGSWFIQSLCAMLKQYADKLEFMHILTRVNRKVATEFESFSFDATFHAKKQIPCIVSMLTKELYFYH

[2] = molecular target: T2, Sentrin-specific protease 8 (Homo sapiens, UniProt Q96LD8); assay: inhibition of human SENP8 cleavage activity – biochemical, luminescence, SAR follow-up (AID 504501); assay type: functional
T2 sequence (Q96LD8 whole entry): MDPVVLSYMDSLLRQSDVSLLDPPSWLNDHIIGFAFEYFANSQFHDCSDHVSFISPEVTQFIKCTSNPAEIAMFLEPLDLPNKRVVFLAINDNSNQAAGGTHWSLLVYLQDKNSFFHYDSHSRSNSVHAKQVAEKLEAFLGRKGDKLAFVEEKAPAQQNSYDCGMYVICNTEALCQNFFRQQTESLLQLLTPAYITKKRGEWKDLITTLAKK

Cytochrome P450 2D6 = Cytochrome P450 2D6 (Homo sapiens, UniProt P10635);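 further: CYP2D6 member of a cytochrome P450 panel assay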
Chain of Cytochrome P450 2D6 (P10635 whole entry): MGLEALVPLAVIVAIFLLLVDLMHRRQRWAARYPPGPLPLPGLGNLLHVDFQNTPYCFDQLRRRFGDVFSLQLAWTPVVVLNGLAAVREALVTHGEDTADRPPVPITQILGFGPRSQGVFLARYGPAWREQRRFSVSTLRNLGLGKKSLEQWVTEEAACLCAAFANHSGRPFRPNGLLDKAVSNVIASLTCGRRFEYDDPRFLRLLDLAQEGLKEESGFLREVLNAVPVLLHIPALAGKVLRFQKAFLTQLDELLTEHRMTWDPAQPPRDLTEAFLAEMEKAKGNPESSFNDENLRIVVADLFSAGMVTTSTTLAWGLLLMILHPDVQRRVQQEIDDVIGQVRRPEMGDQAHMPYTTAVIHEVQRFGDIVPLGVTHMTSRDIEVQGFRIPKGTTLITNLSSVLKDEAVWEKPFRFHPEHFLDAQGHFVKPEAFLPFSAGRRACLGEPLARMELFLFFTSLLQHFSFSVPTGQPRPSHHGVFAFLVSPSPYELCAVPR

[3] = molecular target: T3, Sentrin-specific protease 6 (Homo sapiens, UniProt Q9GZR1); assay type: functional
T3 sequence (Q9GZR1 whole entry): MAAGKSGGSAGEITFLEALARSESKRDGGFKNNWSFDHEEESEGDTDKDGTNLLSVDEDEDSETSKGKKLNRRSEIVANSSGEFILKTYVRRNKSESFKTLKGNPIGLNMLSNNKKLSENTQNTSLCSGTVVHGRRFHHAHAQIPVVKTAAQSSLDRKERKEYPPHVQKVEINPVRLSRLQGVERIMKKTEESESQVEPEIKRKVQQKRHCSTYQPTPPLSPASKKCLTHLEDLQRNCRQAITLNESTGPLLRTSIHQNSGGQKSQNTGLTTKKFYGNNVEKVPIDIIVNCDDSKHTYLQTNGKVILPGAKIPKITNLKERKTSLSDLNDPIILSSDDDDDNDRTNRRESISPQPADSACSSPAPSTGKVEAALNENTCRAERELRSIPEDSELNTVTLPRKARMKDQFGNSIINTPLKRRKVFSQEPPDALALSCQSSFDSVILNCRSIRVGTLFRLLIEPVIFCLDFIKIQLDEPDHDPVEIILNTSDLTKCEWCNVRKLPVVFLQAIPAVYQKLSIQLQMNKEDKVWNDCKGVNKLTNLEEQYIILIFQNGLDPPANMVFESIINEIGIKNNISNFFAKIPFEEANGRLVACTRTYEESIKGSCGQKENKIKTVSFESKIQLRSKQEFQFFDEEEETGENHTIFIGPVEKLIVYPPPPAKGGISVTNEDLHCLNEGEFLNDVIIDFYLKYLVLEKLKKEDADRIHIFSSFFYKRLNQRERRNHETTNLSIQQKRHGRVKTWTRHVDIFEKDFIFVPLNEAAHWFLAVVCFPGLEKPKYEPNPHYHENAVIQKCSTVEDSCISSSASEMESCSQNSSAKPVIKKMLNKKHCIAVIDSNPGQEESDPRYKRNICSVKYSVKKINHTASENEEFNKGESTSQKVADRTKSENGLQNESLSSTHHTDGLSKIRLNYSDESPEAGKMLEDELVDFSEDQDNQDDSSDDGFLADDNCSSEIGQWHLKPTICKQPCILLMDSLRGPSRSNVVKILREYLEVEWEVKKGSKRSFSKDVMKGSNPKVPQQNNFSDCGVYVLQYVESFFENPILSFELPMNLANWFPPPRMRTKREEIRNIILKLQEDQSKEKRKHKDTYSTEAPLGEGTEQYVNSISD

[4] = molecular target: T2, Sentrin-specific protease 8; assay type: functional
[5] = molecular target: T3, Sentrin-specific protease 6; assay: SAR Analysis of small molecule inhibitors of Sentrin-specific protease 6 (SENP6) using a Luminescent assay. [Related pubchem assays (depositor defined):AID2582, AID2599]; assay type: functional
[6] = molecular target: T4, Sentrin-specific protease 7 (Homo sapiens, UniProt Q9BQF6); assay: inhibition of human SENP7 cleavage activity – biochemical, luminescence, SAR follow-up (AID 504497); assay type: functional
T4 sequence (Q9BQF6 whole entry): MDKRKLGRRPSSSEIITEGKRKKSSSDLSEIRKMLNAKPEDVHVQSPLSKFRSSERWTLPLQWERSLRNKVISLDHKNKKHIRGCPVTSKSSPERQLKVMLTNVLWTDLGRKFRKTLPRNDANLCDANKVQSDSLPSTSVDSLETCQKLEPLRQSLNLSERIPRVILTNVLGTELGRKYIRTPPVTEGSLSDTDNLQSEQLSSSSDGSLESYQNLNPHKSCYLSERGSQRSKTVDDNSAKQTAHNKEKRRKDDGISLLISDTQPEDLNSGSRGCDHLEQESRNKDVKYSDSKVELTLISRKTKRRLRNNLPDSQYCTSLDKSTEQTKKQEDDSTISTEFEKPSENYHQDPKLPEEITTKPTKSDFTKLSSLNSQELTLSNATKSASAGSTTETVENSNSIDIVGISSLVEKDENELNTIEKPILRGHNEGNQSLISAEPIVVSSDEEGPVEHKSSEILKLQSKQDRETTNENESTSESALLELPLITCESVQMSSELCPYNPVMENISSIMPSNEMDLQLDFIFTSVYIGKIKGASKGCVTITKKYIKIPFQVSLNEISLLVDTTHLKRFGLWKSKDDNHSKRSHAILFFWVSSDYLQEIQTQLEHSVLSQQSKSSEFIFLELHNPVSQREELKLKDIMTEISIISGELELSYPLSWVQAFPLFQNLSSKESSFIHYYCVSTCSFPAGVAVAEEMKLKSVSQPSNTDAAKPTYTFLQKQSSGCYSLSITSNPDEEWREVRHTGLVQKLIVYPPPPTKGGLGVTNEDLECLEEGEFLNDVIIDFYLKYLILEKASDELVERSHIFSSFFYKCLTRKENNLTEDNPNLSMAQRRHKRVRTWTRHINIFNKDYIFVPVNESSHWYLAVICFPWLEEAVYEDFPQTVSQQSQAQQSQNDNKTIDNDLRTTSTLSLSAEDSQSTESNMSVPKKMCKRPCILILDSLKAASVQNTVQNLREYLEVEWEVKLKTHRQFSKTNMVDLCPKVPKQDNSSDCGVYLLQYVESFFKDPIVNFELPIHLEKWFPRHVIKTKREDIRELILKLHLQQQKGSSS

Cytochrome P450 2C9 = Cytochrome P450 2C9 (Homo sapiens, UniProt P11712)
Chain of Cytochrome P450 2C9 (P11712 whole entry): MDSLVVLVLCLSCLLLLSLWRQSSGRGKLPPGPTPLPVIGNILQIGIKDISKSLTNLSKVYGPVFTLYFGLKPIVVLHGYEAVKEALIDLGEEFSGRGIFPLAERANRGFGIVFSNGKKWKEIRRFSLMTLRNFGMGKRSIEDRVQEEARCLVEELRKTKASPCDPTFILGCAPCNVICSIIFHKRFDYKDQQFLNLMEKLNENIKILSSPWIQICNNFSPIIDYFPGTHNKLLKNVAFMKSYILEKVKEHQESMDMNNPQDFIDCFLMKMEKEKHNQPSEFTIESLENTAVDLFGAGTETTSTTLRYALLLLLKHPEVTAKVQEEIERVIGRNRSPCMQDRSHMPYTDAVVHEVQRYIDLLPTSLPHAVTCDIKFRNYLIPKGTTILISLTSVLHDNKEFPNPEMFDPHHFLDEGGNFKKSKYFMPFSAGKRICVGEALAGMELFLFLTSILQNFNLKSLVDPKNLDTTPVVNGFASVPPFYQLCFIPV

Caspase-3 [7] = molecular target: T1, Caspase-3; assay: SAR Analysis of small molecule inhibitors of Sentrin-specific proteases (SENPs) using a Caspase-3 Selectivity assay. [Related pubchem assays (depositor defined):AID2540, AID2599, AID434973, AID489001]; assay type: functional
Cytochrome P450 2C19 = Cytochrome P450 2C19 (Homo sapiens, UniProt P33261); assay: Cytochrome panel assay with activity outcomes. Panel member name: p450-cyp2c19 Compounds with AC50 equal or less than 10 uM are considered active; assay type: functional; details: read-out: AC50
Chain of Cytochrome P450 2C19 (P33261 whole entry): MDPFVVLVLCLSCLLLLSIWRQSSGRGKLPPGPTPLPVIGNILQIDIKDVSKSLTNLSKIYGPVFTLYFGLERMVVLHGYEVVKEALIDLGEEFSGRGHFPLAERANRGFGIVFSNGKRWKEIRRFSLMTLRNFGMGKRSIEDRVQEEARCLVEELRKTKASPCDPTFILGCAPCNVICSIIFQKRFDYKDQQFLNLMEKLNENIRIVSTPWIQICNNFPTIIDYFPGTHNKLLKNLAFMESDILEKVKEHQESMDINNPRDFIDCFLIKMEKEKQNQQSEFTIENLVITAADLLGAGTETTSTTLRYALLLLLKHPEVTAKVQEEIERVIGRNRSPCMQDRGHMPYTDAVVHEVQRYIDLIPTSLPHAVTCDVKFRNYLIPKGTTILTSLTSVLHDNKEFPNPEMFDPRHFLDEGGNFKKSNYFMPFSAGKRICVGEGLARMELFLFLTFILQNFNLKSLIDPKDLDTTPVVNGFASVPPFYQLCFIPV

[8] = molecular target: T4, Sentrin-specific protease 7; assay type: functional
Large T antigen = Large T antigen (Simian virus 40, UniProt P03070); assay type: functional, Betapolyomavirus macacae;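 further: Confirmatory-stage PubChem screen for compounds that inhibit SV40 T antigen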
Chain of Large T antigen (P03070 whole entry): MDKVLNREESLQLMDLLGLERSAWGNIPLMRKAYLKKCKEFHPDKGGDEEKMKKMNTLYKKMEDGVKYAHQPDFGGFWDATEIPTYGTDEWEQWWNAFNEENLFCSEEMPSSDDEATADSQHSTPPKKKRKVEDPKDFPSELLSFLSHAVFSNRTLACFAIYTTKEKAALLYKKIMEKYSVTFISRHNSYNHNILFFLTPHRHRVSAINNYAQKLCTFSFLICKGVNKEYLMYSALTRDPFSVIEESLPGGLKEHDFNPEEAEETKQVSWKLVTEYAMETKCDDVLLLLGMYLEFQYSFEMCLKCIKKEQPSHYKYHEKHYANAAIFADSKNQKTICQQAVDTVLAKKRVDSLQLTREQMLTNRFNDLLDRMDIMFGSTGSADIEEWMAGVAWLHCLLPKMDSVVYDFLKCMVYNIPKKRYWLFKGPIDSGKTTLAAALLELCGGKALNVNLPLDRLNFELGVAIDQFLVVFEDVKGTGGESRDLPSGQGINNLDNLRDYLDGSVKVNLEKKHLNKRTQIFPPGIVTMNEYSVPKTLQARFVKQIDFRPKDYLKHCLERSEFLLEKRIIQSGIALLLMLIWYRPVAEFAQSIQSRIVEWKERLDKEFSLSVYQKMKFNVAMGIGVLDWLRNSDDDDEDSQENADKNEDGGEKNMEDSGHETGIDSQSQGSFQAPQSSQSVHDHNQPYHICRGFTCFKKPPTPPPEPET

HEK293 [9] = assay: membrane integrity loss in HEK cells – cell-based, fluorescence, cytotoxicity control for IDE activator project, dose response (AID 588440); assay type: functional; details: Homo sapiens;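 further: cytotoxicity by LDH release measuring loss of membrane integrity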
Insulin-degrading enzyme [10] = molecular target: T5, Insulin-degrading enzyme (Homo sapiens, UniProt P14735); assay: cellular IDE activation of Abeta substrate cleavage – fluorescence polarization, HEK cells, dose response (AID 588439); assay type: functional, cell-based
T5 sequence (P14735 whole entry): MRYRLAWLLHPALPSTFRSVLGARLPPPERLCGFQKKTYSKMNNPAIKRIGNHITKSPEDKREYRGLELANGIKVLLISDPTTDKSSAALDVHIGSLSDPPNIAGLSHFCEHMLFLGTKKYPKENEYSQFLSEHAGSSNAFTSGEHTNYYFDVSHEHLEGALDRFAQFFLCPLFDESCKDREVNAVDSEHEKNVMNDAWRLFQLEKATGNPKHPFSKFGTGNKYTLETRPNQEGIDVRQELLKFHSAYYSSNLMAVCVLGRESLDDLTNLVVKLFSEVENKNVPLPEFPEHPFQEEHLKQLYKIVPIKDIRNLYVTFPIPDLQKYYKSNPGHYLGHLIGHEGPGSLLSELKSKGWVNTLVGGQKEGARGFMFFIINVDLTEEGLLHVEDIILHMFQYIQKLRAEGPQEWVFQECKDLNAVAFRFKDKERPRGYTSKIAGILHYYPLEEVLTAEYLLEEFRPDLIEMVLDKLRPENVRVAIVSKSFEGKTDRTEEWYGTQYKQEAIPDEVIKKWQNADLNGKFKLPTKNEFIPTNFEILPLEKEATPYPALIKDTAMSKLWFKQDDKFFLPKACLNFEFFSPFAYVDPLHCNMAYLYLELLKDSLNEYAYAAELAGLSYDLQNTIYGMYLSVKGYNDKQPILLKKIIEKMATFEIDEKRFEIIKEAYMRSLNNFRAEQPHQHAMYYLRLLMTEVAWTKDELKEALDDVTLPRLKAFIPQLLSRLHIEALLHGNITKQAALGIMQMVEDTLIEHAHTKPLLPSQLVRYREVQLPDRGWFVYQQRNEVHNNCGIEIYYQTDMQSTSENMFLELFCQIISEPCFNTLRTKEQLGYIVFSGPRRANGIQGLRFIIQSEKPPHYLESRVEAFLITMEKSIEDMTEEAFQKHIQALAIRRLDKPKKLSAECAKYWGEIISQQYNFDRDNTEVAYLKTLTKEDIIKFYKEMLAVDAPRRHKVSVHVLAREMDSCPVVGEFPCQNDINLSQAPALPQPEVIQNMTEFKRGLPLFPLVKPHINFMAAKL

Prothrombin = Prothrombin (Bos taurus, UniProt P00735); assay: thrombin protease inhibitors – biochemical, fluorescence polarization, uHTS hits, dose response (AID 602369); assay type: functional
Streptokinase A = molecular target: T6, Streptokinase A (Streptococcus pyogenes serotype M1, UniProt P10520); assay: viability-normalized secreted streptokinase activity reduction – plasminogen activation absorbance, OD405, dose response (AID 1914); assay type: functional, Streptococcus pyogenes M1 GAS;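 further: secreted streptokinase activity via plasminogen activation per viability signal from cell pellet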
T6 sequence (P10520 whole entry): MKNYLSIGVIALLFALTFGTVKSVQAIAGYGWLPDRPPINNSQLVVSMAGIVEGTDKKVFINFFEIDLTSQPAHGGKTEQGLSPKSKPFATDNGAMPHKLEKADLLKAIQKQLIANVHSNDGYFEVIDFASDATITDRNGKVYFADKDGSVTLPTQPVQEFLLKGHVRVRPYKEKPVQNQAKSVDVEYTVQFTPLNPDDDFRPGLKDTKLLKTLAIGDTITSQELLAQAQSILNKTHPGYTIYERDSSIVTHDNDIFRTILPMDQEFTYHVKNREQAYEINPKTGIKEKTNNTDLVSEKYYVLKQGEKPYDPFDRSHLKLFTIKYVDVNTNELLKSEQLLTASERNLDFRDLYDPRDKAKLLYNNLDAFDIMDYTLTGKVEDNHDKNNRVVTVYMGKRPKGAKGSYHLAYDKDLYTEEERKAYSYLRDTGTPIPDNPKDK

[11] = test system: Streptococcus sp. 'group A'; assay: Streptococcus pyogenes SK(-)GAS viability under kanamycin – luminescence, BacTiterGlo, confirmation, counter-screen for streptokinase expression inhibitor project, dose response (AID 1900); assay type: functional, organism-based
[12] = molecular target: 26S proteasome non-ATPase regulatory subunit 14 (Homo sapiens, UniProt O00487); assay: inhibition of proteasome subunit RPN11 – biochemical, fluorescence polarization, uHTS hits, confirmation (AID 602368); assay type: functional
Chain of 26S proteasome non-ATPase regulatory subunit 14 (O00487 whole entry): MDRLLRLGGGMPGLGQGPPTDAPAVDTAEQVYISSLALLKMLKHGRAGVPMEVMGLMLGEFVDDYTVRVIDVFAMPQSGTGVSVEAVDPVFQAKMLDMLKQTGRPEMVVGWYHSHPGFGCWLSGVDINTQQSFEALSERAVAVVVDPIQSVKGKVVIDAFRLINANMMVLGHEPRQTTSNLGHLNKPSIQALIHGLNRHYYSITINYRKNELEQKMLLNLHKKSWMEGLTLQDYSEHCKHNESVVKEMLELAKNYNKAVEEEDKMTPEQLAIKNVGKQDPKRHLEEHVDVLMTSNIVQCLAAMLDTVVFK

[13] = molecular target: 72 kDa type IV collagenase (Homo sapiens, UniProt P08253); assay: Dose Response validation of uHTS RPN11 inhibitor hits using a MMP-2 Fluorescence assay.; assay type: functional
Chain of 72 kDa type IV collagenase (P08253 whole entry): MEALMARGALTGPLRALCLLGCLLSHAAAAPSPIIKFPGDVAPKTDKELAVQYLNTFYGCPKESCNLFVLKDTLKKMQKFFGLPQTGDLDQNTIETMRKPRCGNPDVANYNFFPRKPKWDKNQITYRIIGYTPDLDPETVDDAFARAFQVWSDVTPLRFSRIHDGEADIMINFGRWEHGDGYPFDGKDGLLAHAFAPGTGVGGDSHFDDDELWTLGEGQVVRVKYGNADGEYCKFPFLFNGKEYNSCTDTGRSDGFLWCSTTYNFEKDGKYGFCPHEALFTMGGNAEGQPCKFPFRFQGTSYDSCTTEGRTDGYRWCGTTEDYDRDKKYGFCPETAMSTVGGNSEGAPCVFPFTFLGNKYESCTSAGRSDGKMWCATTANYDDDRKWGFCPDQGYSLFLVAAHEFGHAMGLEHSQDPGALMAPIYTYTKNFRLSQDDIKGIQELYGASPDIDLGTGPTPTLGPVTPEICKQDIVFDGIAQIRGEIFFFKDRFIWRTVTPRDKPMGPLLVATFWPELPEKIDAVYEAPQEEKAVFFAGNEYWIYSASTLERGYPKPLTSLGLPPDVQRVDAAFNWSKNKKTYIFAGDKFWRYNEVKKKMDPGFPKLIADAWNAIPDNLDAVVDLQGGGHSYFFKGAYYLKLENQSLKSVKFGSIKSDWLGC

HEK293 [14] = assay: optical interference in Abeta FP readout, dose response, artefact control for IDE activator project, biochemical, fluorescence polarization (AID 588442); assay type: functional, cell-based; details: Homo sapiens
Insulin-degrading enzyme [15] = molecular target: T5, Insulin-degrading enzyme; assay: recombinant IDE activation, cell-free – biochemical, fluorescence polarization, counter-screen for IDE activator project, dose response (AID 588681)
Streptococcus = assay: GAS UMAA2166 growth inhibition – luminescence, BacTiterGlo, counter-screen for streptokinase expression inhibitor project, dose response (AID 1915); assay type: functional, organism-based;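 further: potency for reduction of bacterial viability or growth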
CHO = CHO cell viability loss, potency – luminescence, cytotoxicity control for TLR9-MyD88 binding inhibitor project, dose response (AID 588339); assay type: functional, cell-based, hamster; details: Cricetulus griseus;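 further: CHO cells stably coexpressing TLR9 and MyD88 fusions from primary screen; compound exposure lasted 48 hours before viability readout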

Cc1ccc(/C=C/c2nnc(-c3cccs3)o2)cc1
IC50 (Caspase-3 [1]): > 100 µM (inactive) | IC50 [2]: 2.1 µM (active) | AC50 (Cytochrome P450 2D6): 25.1 µM (inconclusive) | IC50 [3]: > 100 µM (inactive) | IC50 [4]: 24.3 µM (active) | IC50 [5]: 2 µM (active) | IC50 [6]: 1.7 µM (active) | AC50 (Cytochrome P450 2C9): 10 µM (inconclusive) | IC50 (Caspase-3 [7]): 2 µM (active) | AC50 (Cytochrome P450 2C19): 25.1 µM (inconclusive) | IC50 [8]: > 100 µM (inactive)

C#CCOCCOCCOCCNc1nc(N2CCN(C(=O)CCCCCCCCCCNC(=O)[C@H](CCCCN)n3cc(C[C@@H](C)CC)nn3)CC2)nc(N2CCN(C(=O)CCCCCCCCCCNC(=O)[C@H](CCCCN)n3cc(C[C@@H](C)CC)nn3)CC2)n1
IC50 (Large T antigen): 36.5 µM (active) | IC50 (HEK293 [9]): 4.19 µM (active) | EC50 (Insulin-degrading enzyme [10]): > 2.03 µM (active) | IC50 (Prothrombin): 24.5 µM (active) | EC50 (Streptokinase A): 13.9 µM (active) | EC50 [11]: 2.86 µM (active) | IC50 [12]: 16.2 µM (active) | IC50 [13]: > 100 µM (inactive) | EC50 (HEK293 [14]): > 54.7 µM (inactive) | EC50 (Insulin-degrading enzyme [15]): 9.71 µM (active) | EC50 (Streptococcus): > 150 µM (not active) | IC50 (CHO): 5.63 µM (active)
